Results taken from publication PMC4700268 (Frontiers in Pharmacology, 2016).
Read-outs that look alike come from different tables or passages of the source.

T1: hOAT1 (Homo sapiens, UniProt Q4U2R8)
T1 sequence (Q4U2R8 1-563): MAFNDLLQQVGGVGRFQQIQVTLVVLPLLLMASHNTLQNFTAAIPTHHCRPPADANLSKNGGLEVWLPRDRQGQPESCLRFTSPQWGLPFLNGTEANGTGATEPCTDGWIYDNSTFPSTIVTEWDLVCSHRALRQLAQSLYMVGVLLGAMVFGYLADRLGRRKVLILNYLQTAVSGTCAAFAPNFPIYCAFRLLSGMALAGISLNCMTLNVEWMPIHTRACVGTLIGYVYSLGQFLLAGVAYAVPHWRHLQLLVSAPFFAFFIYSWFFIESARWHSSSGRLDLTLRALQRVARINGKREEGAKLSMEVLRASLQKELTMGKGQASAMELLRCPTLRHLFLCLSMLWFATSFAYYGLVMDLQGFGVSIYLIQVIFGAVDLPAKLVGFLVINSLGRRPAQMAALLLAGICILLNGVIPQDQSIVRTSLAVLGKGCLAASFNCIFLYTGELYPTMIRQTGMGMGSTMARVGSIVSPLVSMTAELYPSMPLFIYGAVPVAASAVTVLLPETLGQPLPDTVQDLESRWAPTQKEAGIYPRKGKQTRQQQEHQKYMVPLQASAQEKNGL

T2: hCNT2 (Homo sapiens, UniProt O43868)
T2 sequence (O43868 1-658): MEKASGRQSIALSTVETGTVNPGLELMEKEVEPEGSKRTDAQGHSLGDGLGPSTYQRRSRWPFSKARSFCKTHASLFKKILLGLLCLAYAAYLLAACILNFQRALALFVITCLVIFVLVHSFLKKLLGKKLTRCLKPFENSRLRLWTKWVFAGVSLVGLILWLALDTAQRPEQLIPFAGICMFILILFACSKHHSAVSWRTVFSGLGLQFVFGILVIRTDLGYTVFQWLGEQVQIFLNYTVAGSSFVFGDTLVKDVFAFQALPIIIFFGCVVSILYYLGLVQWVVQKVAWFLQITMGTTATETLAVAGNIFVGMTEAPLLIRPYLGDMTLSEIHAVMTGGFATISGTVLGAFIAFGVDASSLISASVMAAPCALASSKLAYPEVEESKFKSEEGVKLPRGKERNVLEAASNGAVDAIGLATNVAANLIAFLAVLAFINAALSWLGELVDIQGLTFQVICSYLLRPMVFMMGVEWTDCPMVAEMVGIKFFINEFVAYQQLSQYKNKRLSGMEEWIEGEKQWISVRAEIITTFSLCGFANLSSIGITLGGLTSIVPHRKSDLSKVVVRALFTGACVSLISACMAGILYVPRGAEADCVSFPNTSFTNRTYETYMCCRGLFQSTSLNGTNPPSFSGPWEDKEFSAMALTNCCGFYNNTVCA

T3: hCNT3 (Homo sapiens, UniProt Q9HAS3)
T3 sequence (Q9HAS3 1-691): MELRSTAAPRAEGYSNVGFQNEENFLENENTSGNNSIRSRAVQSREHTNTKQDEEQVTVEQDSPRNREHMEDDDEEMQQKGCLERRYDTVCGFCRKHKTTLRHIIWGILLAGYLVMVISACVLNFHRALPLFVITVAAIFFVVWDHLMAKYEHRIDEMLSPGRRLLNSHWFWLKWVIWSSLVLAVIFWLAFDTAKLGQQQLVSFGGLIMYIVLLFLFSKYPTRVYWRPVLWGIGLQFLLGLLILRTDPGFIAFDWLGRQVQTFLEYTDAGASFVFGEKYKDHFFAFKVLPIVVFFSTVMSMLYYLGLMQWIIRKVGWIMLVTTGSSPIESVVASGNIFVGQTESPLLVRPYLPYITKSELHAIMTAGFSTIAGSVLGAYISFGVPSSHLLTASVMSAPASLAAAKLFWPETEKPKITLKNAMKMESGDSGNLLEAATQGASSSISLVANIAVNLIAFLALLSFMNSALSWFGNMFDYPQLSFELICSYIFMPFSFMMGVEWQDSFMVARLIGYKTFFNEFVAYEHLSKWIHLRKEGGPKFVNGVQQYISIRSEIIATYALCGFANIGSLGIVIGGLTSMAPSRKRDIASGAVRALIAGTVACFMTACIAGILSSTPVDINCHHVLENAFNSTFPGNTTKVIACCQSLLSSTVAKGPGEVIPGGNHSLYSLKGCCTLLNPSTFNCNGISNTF


How the values were obtained:
hOAT1 = biological target: T1, hOAT1; design: method as in Ho et al. (2000); conditions: ref Ho et al. (2000); read-out: Km in CHO cells stably expressing hOAT1; cited from earlier work
[1] = ref Cundy, 1999; Kearney et al., 2005; Delahunty et al., 2006; cited from earlier work
hCNT2 = biological target: T2, hCNT2; test: Inhibition of [3H]uridine uptake in hCNT2 transfected MDCK II cells; type: in vitro ADME; design: host or cells: MDCK II cells, transient transfection; conditions: 1 μM [3H]uridine, 0–1000 μM, 2 min, MDCK II
Procedure: (§1) Inhibitory transport assays were carried out in 24-well plates as described previously ([Mandikova et al., 2013]). Transport assays in HeLa cells transiently transfected with the hOAT1 expression construct were performed 48 h after transfection. Transport assays in MDCK II cells transiently transfected with hOCT2, hCNT2 or hCNT3 were performed 24 h after transfection. The cultivation medium was removed and the cells were washed with transport solution and preincubated for 10 min at 37°C. The standard radiolabeled substrate or tested radioactive antiviral substance dissolved in transport solution was added to the cells and incubated for 2 min. [^3H]PAH (1 μM) was used as a prototypical substrate for OATs, [^3H]MPP^+ (1 μM) for OCTs and [^3H]uridine (1 μM) for CNTs. […] After the designated time period, the incubation was stopped by washing the cells twice with ice-cold solution containing 137 mM NaCl and 10 mM HEPES, pH 7.4. The cells were disintegrated with 0.1 mL of Triton X 0.5% in 100 mM NaOH for 1 h.
(§2) IC50 values were calculated using non-linear regression analysis using GraphPad Prism software (version 6).

hCNT3 = biological target: T3, hCNT3; test: Inhibition of [3H]uridine uptake in hCNT3 transfected MDCK II cells; type: in vitro ADME; design: host or cells: MDCK II cells, transient transfection; conditions: 1 μM [3H]uridine, 0–1000 μM, 2 min, MDCK II
Procedure: as §1, §2

[2] = tested on: HeLa cells transiently transfected with hOAT1; test: MTS cell viability assay in hOAT1 transfected HeLa cells; conditions: 24 h, hOAT1 vs empty vector transfected HeLa cells
Procedure: (§3) The Hela cells were plated in a 96-well plate and transfected with hOAT1 as described above. […] The controls were prepared simultaneously. After 24 h of incubation, the reagent from the kit CellTiter 96 AQueous One Solution Cell Proliferation Assay (CellTiter 96, PROMEGA, USA) was added. After 1.5 h of incubation at 37°C the absorbance was recorded at 490 nm.

[3] = tested on: HeLa cells transiently transfected with hOAT1
Procedure: as §3

not read [4] = substrate: C=C1[C@H](CO)[C@@H](O)C[C@@H]1n1cnc2c(=O)[nH]c(N)nc21; test: not read; conditions: 5 min, 37°C
not read [5] = substrate: C=C1[C@H](CO)[C@@H](O)C[C@@H]1n1cnc2c(=O)[nH]c(N)nc21; test: not read; type: in vitro ADME, human; conditions: other: HeLa cells transiently transfected with hOAT1, 5 min, 37°C

| Molecule | Therapeutic plasma levels achieved in humans [1] | Inhibitory effect on hCNT2 (hCNT2) | Inhibitory effect on hCNT3 (hCNT3) | Effect of hOAT1 expression on cytotoxicity (cell viability) [2] | other results |
| --- | --- | --- | --- | --- | --- |
| Nc1ncnc2c1ncn2CCOCP(=O)(O)O [adefovir] | 0.1 µM | not observed | not observed | significantly enhanced the cytotoxic effect | Km (hOAT1): 23.8 µM |
| Nc1ccn(C[C@@H](CO)OCP(=O)(O)O)c(=O)n1 [cidofovir] | 70 µM | not observed | not observed | significantly enhanced the cytotoxic effect |  |
| C[C@H](Cn1cnc2c(N)ncnc21)OCP(=O)(O)O [tenofovir] | 0.5 µM | not observed | not observed |  | Effect of hOAT1 expression on cytotoxicity (cell viability) [3]: significantly enhanced the cytotoxic effect |
| hCNT2 (Homo sapiens) (protein) MEKASGRQSIALSTVETGTVNPGLELMEKEVEPEGSKRTDAQGHSLGDGLGPSTYQRRSRWPFSKARSFCKTHASLFKKILLGLLCLAYAAYLLAACILNFQRALALFVITCLVIFVLVHSFLKKLLGKKLTRCLKPFENSRLRLWTKWVFAGVSLVGLILWLALDTAQRPEQLIPFAGICMFILILFACSKHHSAVSWRTVFSGLGLQFVFGILVIRTDLGYTVFQWLGEQVQIFLNYTVAGSSFVFGDTLVKDVFAFQALPIIIFFGCVVSILYYLGLVQWVVQKVAWFLQITMGTTATETLAVAGNIFVGMTEAPLLIRPYLGDMTLSEIHAVMTGGFATISGTVLGAFIAFGVDASSLISASVMAAPCALASSKLAYPEVEESKFKSEEGVKLPRGKERNVLEAASNGAVDAIGLATNVAANLIAFLAVLAFINAALSWLGELVDIQGLTFQVICSYLLRPMVFMMGVEWTDCPMVAEMVGIKFFINEFVAYQQLSQYKNKRLSGMEEWIEGEKQWISVRAEIITTFSLCGFANLSSIGITLGGLTSIVPHRKSDLSKVVVRALFTGACVSLISACMAGILYVPRGAEADCVSFPNTSFTNRTYETYMCCRGLFQSTSLNGTNPPSFSGPWEDKEFSAMALTNCCGFYNNTVCA |  |  |  |  | Km (not read [4]; other: hCNT2 transfected cells): 1522.00 µM |
| hOAT1 (Homo sapiens) (protein, host or cells: HeLa cells, transient transfection) MAFNDLLQQVGGVGRFQQIQVTLVVLPLLLMASHNTLQNFTAAIPTHHCRPPADANLSKNGGLEVWLPRDRQGQPESCLRFTSPQWGLPFLNGTEANGTGATEPCTDGWIYDNSTFPSTIVTEWDLVCSHRALRQLAQSLYMVGVLLGAMVFGYLADRLGRRKVLILNYLQTAVSGTCAAFAPNFPIYCAFRLLSGMALAGISLNCMTLNVEWMPIHTRACVGTLIGYVYSLGQFLLAGVAYAVPHWRHLQLLVSAPFFAFFIYSWFFIESARWHSSSGRLDLTLRALQRVARINGKREEGAKLSMEVLRASLQKELTMGKGQASAMELLRCPTLRHLFLCLSMLWFATSFAYYGLVMDLQGFGVSIYLIQVIFGAVDLPAKLVGFLVINSLGRRPAQMAALLLAGICILLNGVIPQDQSIVRTSLAVLGKGCLAASFNCIFLYTGELYPTMIRQTGMGMGSTMARVGSIVSPLVSMTAELYPSMPLFIYGAVPVAASAVTVLLPETLGQPLPDTVQDLESRWAPTQKEAGIYPRKGKQTRQQQEHQKYMVPLQASAQEKNGL |  |  |  |  | Km (not read [5]): 316.5 µM |
| hCNT3 (Homo sapiens) (protein) MELRSTAAPRAEGYSNVGFQNEENFLENENTSGNNSIRSRAVQSREHTNTKQDEEQVTVEQDSPRNREHMEDDDEEMQQKGCLERRYDTVCGFCRKHKTTLRHIIWGILLAGYLVMVISACVLNFHRALPLFVITVAAIFFVVWDHLMAKYEHRIDEMLSPGRRLLNSHWFWLKWVIWSSLVLAVIFWLAFDTAKLGQQQLVSFGGLIMYIVLLFLFSKYPTRVYWRPVLWGIGLQFLLGLLILRTDPGFIAFDWLGRQVQTFLEYTDAGASFVFGEKYKDHFFAFKVLPIVVFFSTVMSMLYYLGLMQWIIRKVGWIMLVTTGSSPIESVVASGNIFVGQTESPLLVRPYLPYITKSELHAIMTAGFSTIAGSVLGAYISFGVPSSHLLTASVMSAPASLAAAKLFWPETEKPKITLKNAMKMESGDSGNLLEAATQGASSSISLVANIAVNLIAFLALLSFMNSALSWFGNMFDYPQLSFELICSYIFMPFSFMMGVEWQDSFMVARLIGYKTFFNEFVAYEHLSKWIHLRKEGGPKFVNGVQQYISIRSEIIATYALCGFANIGSLGIVIGGLTSMAPSRKRDIASGAVRALIAGTVACFMTACIAGILSSTPVDINCHHVLENAFNSTFPGNTTKVIACCQSLLSSTVAKGPGEVIPGGNHSLYSLKGCCTLLNPSTFNCNGISNTF |  |  |  |  | Km (not read [4]; other: hCNT3 transfected cells): 99.02 µM |
